From ChEMBL document CHEMBL6182935, “Discovery of a Novel Silybin Derivative for the Treatment of Metabolic Dysfunction-Associated Steatohepatitis” (J Med Chem, 2025) come the findings set out here.

SMILES strings stand for the structures. Values after ≈ are worked out from the molar mass of the structure shown. Active and inactive are the calls of the source. The calls are words filed in the database; no cut-off is given here. Some results are limits rather than exact numbers.

Data set [1] in a line: Solubility in ethyl acetate incubated for 10 mins. Type of data set: physicochemical.
Data set [2] in a line: Solubility in methanol incubated for 10 mins. Type of data set: physicochemical.
Data set [3] is described as follows: Solubility in […] incubated for 10 mins. Type of data set: physicochemical.
Data set [4] is described as follows: Solubility in water incubated for 10 mins. The format is physicochemical.
Data set [5] in a line: Antioxidant activity assessed as clearing rate incubated for 30 mins under dark condition by DPPH free radical scavenging assay. Type of data set: functional. Background: DPPH is a stable violet radical that fades when it is reduced.
A short description of data set [6]: Antioxidant activity assessed as inhibition of DPPH free radical scavenging activity incubated for 30 mins under dark condition. Type of data set: functional.
Data set [7] in a line: Antioxidant activity assessed as clearing rate incubated for 5 mins in presence of pyrogallol by superoxide anion scavenging assay. The format is functional.
The nature of data set [8]: Antioxidant activity assessed as inhibition of superoxide anion scavenging activity incubated for 5 mins in presence of pyrogallol. The format is functional.
Data set [9] in a line: Inhibition of lipid peroxidation in egg yolk (unknown origin) at 100 uM preheated with compound and FeSO4 for 15 mins followed by TCA/TBA addition measured after 15 mins by absorbance based assay relative to control. Set-up: scale not given: the % may be the effect or the level left. The following applies: time 30.0 min. Type of data set: functional, tissue-based.
Data set [10] can be described thus: Inhibition of lipid peroxidation in egg yolk (unknown origin) preheated with compound and FeSO4 for 15 mins followed by TCA/TBA addition measured after 15 mins by absorbance based assay. Type of data set: functional, tissue-based.
Data set [11] is described as follows: Toxicity in male Sprague-Dawley rat model of CCl4-induced ALI assessed as body weight change at 100 mg/kg, IG qd pretreated with compound for 7 days followed by CCl4 administration after 2 hrs post-compound treatment measured after 16 hrs post-CCl4 injection. The format is organism-based. The conditions noted are these: in vivo, po, 186 h.
Data set [12] in a line: Toxicity in male Sprague-Dawley rat model of CCl4-induced ALI assessed as animal growth at 100 mg/kg, IG qd pretreated with compound for 7 days followed by CCl4 administration after 2 hrs post-compound treatment measured after 16 hrs post-CCl4 injection. Type of data set: organism-based. The conditions noted are these: in vivo, po, 186 h.
In data set [13] the test system is Rattus norvegicus. Nature of the data set: Hepatoprotective activity in male Sprague-Dawley rat model of CCl4-induced ALI assessed as reduction in yellowing of liver at 100 mg/kg, IG qd pretreated with compound for 7 days followed by CCl4 administration after 2 hrs post-compound treatment measured after 16 hrs post-CCl4 injection. Type of data set: functional, organism-based. The following applies: time 186.0 hrs.

Data set [14] relates to Rattus norvegicus. Kind of data set: Hepatoprotective activity in male Sprague-Dawley rat model of CCl4-induced ALI assessed as reduction in dullness of liver margin at 100 mg/kg, IG qd pretreated with compound for 7 days followed by CCl4 administration after 2 hrs post-compound treatment measured after 16 hrs post-CCl4 injection. The format is functional, organism-based. The following applies: time 186.0 hrs.

The subject of data set [15] is Rattus norvegicus. Nature of the data set: Hepatoprotective activity in male Sprague-Dawley rat model of CCl4-induced ALI assessed as reduction in white granular fat in liver at 100 mg/kg, IG qd pretreated with compound for 7 days followed by CCl4 administration after 2 hrs post-compound treatment measured after 16 hrs post-CCl4 injection. The format is functional, organism-based. The conditions noted are these: time 186.0 hrs.

In data set [16] the test system is Rattus norvegicus. Nature of the data set: Hepatoprotective activity in male Sprague-Dawley rat model of CCl4-induced ALI assessed as reduction in roughened surface in liver at 100 mg/kg, IG qd pretreated with compound for 7 days followed by CCl4 administration after 2 hrs post-compound treatment measured after 16 hrs post-CCl4 injection. The format is functional, organism-based. The conditions noted are these: time 186.0 hrs.

For data set [17], the system named is Rattus norvegicus. Kind of data set: Hepatoprotective activity in male Sprague-Dawley rat model of CCl4-induced ALI assessed as restoration of serum AST level at 100 mg/kg, IG qd pretreated with compound for 7 days followed by CCl4 administration after 2 hrs post-compound treatment measured after 16 hrs post-CCl4 injection. The format is functional, organism-based. The conditions noted are these: time 186.0 hrs.

Data set [18] deals with Rattus norvegicus. Nature of the data set: Hepatoprotective activity in male Sprague-Dawley rat model of CCl4-induced ALI assessed as restoration of serum ALT level at 100 mg/kg, IG qd pretreated with compound for 7 days followed by CCl4 administration after 2 hrs post-compound treatment measured after 16 hrs post-CCl4 injection. Type of data set: functional, organism-based. The conditions noted are these: time 186.0 hrs.

Data set [19] has as its system Rattus norvegicus. Kind of data set: Hepatoprotective activity in male Sprague-Dawley rat model of CCl4-induced ALI assessed as restoration of serum LDH level at 100 mg/kg, IG qd pretreated with compound for 7 days followed by CCl4 administration after 2 hrs post-compound treatment measured after 16 hrs post-CCl4 injection. Type of data set: functional, organism-based. The following applies: time 186.0 hrs.

Data set [20] relates to Rattus norvegicus. Nature of the data set: Hepatoprotective activity in male Sprague-Dawley rat model of CCl4-induced ALI assessed as reduction in vacuoles at 100 mg/kg, IG qd pretreated with compound for 7 days followed by CCl4 administration after 2 hrs post-compound treatment measured after 16 hrs post-CCl4 injection by H and E staining based analysis. The format is functional, organism-based. The conditions noted are these: time 186.0 hrs.

The test system of data set [21] is Rattus norvegicus. Nature of the data set: Hepatoprotective activity in male Sprague-Dawley rat model of CCl4-induced ALI assessed as reduction in acute fat deposition at 100 mg/kg, IG qd pretreated with compound for 7 days followed by CCl4 administration after 2 hrs post-compound treatment measured after 16 hrs post-CCl4 injection by oil red O staining based analysis. Type of data set: functional, organism-based. The following applies: time 186.0 hrs.

For data set [22], the system named is Mus musculus. Kind of data set: Anti-MASH activity in HFD-fed CCl4-treated male C57BL/6 mouse assessed as reversal of hepatopancreas somatic indices at 150 mg/kg, po qd treated for 4 weeks. The format is functional, organism-based.
The test system of data set [23] is Mus musculus. Nature of the data set: Anti-MASH activity in HFD-fed CCl4-treated male C57BL/6 mouse assessed as reduction in hepatocyte ballooning in liver at 150 mg/kg, po qd treated for 4 weeks by H and E/Oil red O staining based analysis. Type of data set: functional, organism-based.
Data set [24] relates to Mus musculus. Kind of data set: Anti-MASH activity in HFD-fed CCl4-treated male C57BL/6 mouse assessed as reduction in inflammation in liver at 150 mg/kg, po qd treated for 4 weeks by H and E/Oil red O staining based analysis. The format is functional, organism-based.
The subject of data set [25] is Mus musculus. Nature of the data set: Anti-MASH activity in HFD-fed CCl4-treated male C57BL/6 mouse assessed as reduction in steatosis in liver at 150 mg/kg, po qd treated for 4 weeks by H and E/Oil red O staining based analysis. The format is functional, organism-based.
The test system of data set [26] is Mus musculus. Kind of data set: Anti-MASH activity in HFD-fed CCl4-treated male C57BL/6 mouse assessed as reduction in fat accumulation in liver at 150 mg/kg, po qd treated for 4 weeks by Oil red O staining based analysis. Type of data set: functional, organism-based.
Data set [27] is described as follows: AUC (0 to infinity) in overnight-fasted male Sprague-Dawley rat at 150 mg/kg, po measured up to 12 hrs by HPLC analysis. Type of data set: ADME, organism-based. The conditions noted are these: in vivo.
Data set [28] deals with Mus musculus. Nature of the data set: Anti-MASH activity in HFD-fed CCl4-treated male C57BL/6 mouse assessed as reduction in hepatic triglyceride level at 150 mg/kg, po qd treated for 4 weeks by ELISA. Type of data set: functional, organism-based. For orientation: ELISA stands for enzyme-linked immunosorbent assay.
Data set [29] concerns Mus musculus. Kind of data set: Anti-MASH activity in HFD-fed CCl4-treated male C57BL/6 mouse assessed as reduction in hepatic cholesterol level at 150 mg/kg, po qd treated for 4 weeks by ELISA. The format is functional, organism-based.
Data set [30] can be described thus: MRT (0 to infinity) in overnight-fasted male Sprague-Dawley rat at 150 mg/kg, po measured up to 12 hrs by HPLC analysis. The format is ADME, organism-based. The following applies: in vivo.
Data set [31] in a line: Terminal half life in overnight-fasted male Sprague-Dawley rat at 150 mg/kg, po measured up to 12 hrs by HPLC analysis. Type of data set: ADME, organism-based. The conditions noted are these: in vivo, read-out: beta t1/2 (converted).
A short description of data set [32]: Tmax in overnight-fasted male Sprague-Dawley rat at 150 mg/kg, po measured up to 12 hrs by HPLC analysis. Type of data set: ADME, organism-based. The conditions noted are these: in vivo.
The nature of data set [33]: Cmax in overnight-fasted male Sprague-Dawley rat at 150 mg/kg, po measured up to 12 hrs by HPLC analysis. The format is ADME, organism-based. The following applies: in vivo.
Data set [34] is described as follows: Apparent volume of distribution during terminal phase in overnight-fasted male Sprague-Dawley rat at 150 mg/kg, po measured up to 12 hrs by HPLC analysis. The following applies: in vivo, read-out: Vz/F. Type of data set: ADME, organism-based.
Data set [35] can be described thus: Apparent clearance during terminal phase in overnight-fasted male Sprague-Dawley rat at 150 mg/kg, po measured up to 12 hrs by HPLC analysis. Type of data set: ADME, organism-based. The conditions noted are these: in vivo, read-out: CLz/F (converted).

The term solubility denotes how much of the substance goes into solution per volume. In general, IC50 refers to the concentration at which inhibition is half-maximal. The AUC(0-inf) is total exposure, with the tail of the curve extrapolated. A word on the MRT inf: it is a mean duration of stay, worked out from the concentration-time curve. As usually defined, the Tmax is the time at which the peak concentration occurs. Usually Cmax stands for the maximum level reached in the sampled fluid or tissue. As for `COc1cc([C@@H]2Oc3cc([C@H]4Oc5cc(O)cc(O)c5C(=O)[C@@H]4O)ccc3OC2CO)ccc1O` (stereo not given in full), the solubility is 15.4 mg/mL (≈ 31.9 mM) in data set [1], 10.6 mg/mL (≈ 22 mM) in data set [2] and 367 mg/mL (≈ 761 mM) in [3]. Besides, the concentration in solution in [4] (solubility at 10 min) was 0.14 mg/mL (≈ 0.29 mM). In addition, the Activity in data set [5] was 47.2%; in data set [7], 34.6%; in data set [9], 39.6%; in data set [11], “Non-toxic”; in data set [12], “Non-toxic”. The IC50 in data set [6] was above 200 µM; in data set [8], above 200 µM; in data set [10], above 100 µM. Also, the outcome in the data set with Rattus norvegicus [13], in the data set on Rattus norvegicus [14], with Rattus norvegicus [15], with Rattus norvegicus [16], with Rattus norvegicus [17] and in the data set with Rattus norvegicus [18] was Active. For the same molecule, the result with Rattus norvegicus [19], with Rattus norvegicus [20], with Rattus norvegicus [21], with Mus musculus [22], with Mus musculus [23] and in the data set on Mus musculus [24] was Active. In addition, the result in the data set with Mus musculus [25], with Mus musculus [26], with Mus musculus [28] and in the data set with Mus musculus [29] was Active. Also, in data set [27], the AUC(0-inf) is 494 ng·h/mL. Moreover, the MRT inf in data set [30] was 5.22 h. Also, the half-life in data set [31] is 2.45 h. For the same molecule, in [32], the Tmax came to 1.02 h. Besides, the highest concentration (Cmax) in [33] is 194 ng/mL. For the same molecule, the Vd/F in data set [34] was 447 L. In addition, the CL/F in data set [35] is 1250 mL/min.

Take `COc1cc(C2Oc3cc([C@H]4Oc5cc(O)cc(O)c5C(=O)[C@@H]4O)ccc3OC2CSSCC2Oc3ccc([C@H]4Oc5cc(O)cc(O)c5C(=O)[C@@H]4O)cc3O[C@H]2c2ccc(O)c(OC)c2)ccc1O` (single isomer, unassigned): the figures for the solubility in [1], in [2] and in data set [3] were 523 mg/mL (≈ 526 mM), 246 mg/mL (≈ 247 mM) and above 1000 mg/mL, respectively. Besides, the solubility at 10 min in data set [4] is 0.19 mg/mL (≈ 0.191 mM). Also, the results for the Activity in [5], in data set [7] and in [9] were 53.9%, 40.6% and 75.2%, respectively. The IC50 was 158 µM in data set [6], above 200 µM in data set [8] and 28.7 µM in data set [10].

Consider `COc1cc([C@@H]2Oc3cc([C@H]4Oc5cc(O)cc(O)c5C(=O)[C@@H]4O)ccc3OC2CSC(C)=O)ccc1O` (stereo not given in full), for which the solubility in data set [1], in data set [2] and in data set [3] was above 1000 mg/mL each time. The solubility at 10 min in data set [4] is 0.3 mg/mL (≈ 0.555 mM). In addition, the Activity turned out to be 39.3% in data set [5], 36.6% in data set [7] and 83.8% in data set [9]. For the same molecule, the IC50 in data set [6] is above 200 µM; in data set [8], above 200 µM; in data set [10], 24 µM.
